In ChEMBL document CHEMBL1150003, “Chiral carbocylic nucleosides: The synthesis and antiviral activity of 4-hydroxy and 4-fluorocarbocyclic - 2- deoxyguanosines” (1993):
Values after ≈ are worked out from the molar mass of the structure shown.

Assays:
Assay type in all cases: functional
Conditions in all cases: Chlorocebus sabaeus, read-out: ID50 (the source's name)
[1] = tested on: Vero; assay: Tested for the concentration required to inhibit HSV-1 strain KOS cytopathic effect by 50% in vero cells
[2] = tested on: Vero; assay: Tested for the concentration required to inhibit HSV-2 strain 186 cytopathic effect by 50% in vero cells
[3] = tested on: Vero; assay: Tested for the cytotoxic effect in vero cell monolayers after incubation for 48 hr at 37 degree Centigrade

| SMILES | IC50 [1] | IC50 [2] | IC50 [3] |
| --- | --- | --- | --- |
| Nc1nc(O)c2ncn([C@H]3C[C@H](O)[C@@](O)(CO)C3)c2n1 | 0.15 µg/mL (≈ 0.533 µM) | 0.26 µg/mL (≈ 0.924 µM) | > 900 µg/mL |
| Nc1nc(O)c2ncn(C3CC(O)C(F)(CO)C3)c2n1 (stereo not given) | 0.15 µg/mL (≈ 0.53 µM) | 0.36 µg/mL (≈ 1.27 µM) | 100 µg/mL (≈ 353 µM) |
| Nc1nc2c(ncn2COCCO)c(=O)[nH]1 [ACYCLOVIR] | 0.2 µg/mL (≈ 0.888 µM) | 0.6 µg/mL (≈ 2.66 µM) | > 300 µg/mL |
| Nc1nc(O)c2ncn([C@@H]3C[C@H](CO)[C@@H](O)C3)c2n1 | 0.06 µg/mL (≈ 0.226 µM) | 0.44 µg/mL (≈ 1.66 µM) | 300 µg/mL (≈ 1130 µM) |
| Nc1nc(O)c2ncn([C@H]3C[C@H](O)[C@](O)(CO)C3)c2n1 | 70 µg/mL (≈ 249 µM) | 65 µg/mL (≈ 231 µM) | > 300 µg/mL |
